From ChEMBL document CHEMBL1697781, “Assessment of the health effects of chemicals in humans: II. Construction of an adverse effects database for QSAR modeling” (Curr Drug Discov Technol, 2004)

How the values were obtained:
Conditions in all cases: human; call rule not given here
Hepatotoxicity [1] = assay: FDA HLAED, gamma-glutamyl transferase (GGT) increase
Hepatotoxicity [2] = assay: FDA HLAED, serum glutamic oxaloacetic transaminase (SGOT) increase
Hepatotoxicity [3] = assay: FDA HLAED, serum glutamic pyruvic transaminase (SGPT) increase
Hepatotoxicity [4] = assay: FDA HLAED, liver enzyme composite activity
Hepatotoxicity [5] = assay: FDA HLAED, lactate dehydrogenase (LDH) increase
Hepatotoxicity [6] = assay: FDA HLAED, alkaline phosphatase increase
For GGT Increase - Index Value in this document: reference of the scale not given here.
For LDH Increase - Index Value in this document: reference of the scale not given here.

| Structure (SMILES) | GGT Increase - Activity Score (Hepatotoxicity [1]) | GGT Increase - Index Value (Hepatotoxicity [1]) | GGT Increase - Number of Reports (Hepatotoxicity [1]) | SGOT Increase - Activity Score (Hepatotoxicity [2]) | SGOT Increase - Index Value (Hepatotoxicity [2]) | SGOT Increase - Number of Reports (Hepatotoxicity [2]) | SGPT Increase - Activity Score (Hepatotoxicity [3]) | SGPT Increase - Index Value (Hepatotoxicity [3]) | SGPT Increase - Number of Reports (Hepatotoxicity [3]) | Composite Activity - Active (Hepatotoxicity [4]) | Composite Activity - Marginal (Hepatotoxicity [4]) | Composite Activity - Score (Hepatotoxicity [4]) | LDH Increase - Activity Score (Hepatotoxicity [5]) | LDH Increase - Index Value (Hepatotoxicity [5]) | LDH Increase - Number of Reports (Hepatotoxicity [5]) | Alkaline Phosphatase Increase - Activity Score (Hepatotoxicity [6]) | Alkaline Phosphatase Increase - Index Value (Hepatotoxicity [6]) | Alkaline Phosphatase Increase - Number of Reports (Hepatotoxicity [6]) | Composite Activity - Active (Hepatotoxicity [4]; Liver) | Composite Activity - Marginal (Hepatotoxicity [4]; Liver) | further results |
| --- | --- | --- | --- | --- | --- | --- | --- | --- | --- | --- | --- | --- | --- | --- | --- | --- | --- | --- | --- | --- | --- |
| N#Cc1cc(NC(=O)C(=O)O)c(Cl)c(NC(=O)C(=O)O)c1 [LODOXAMIDE] | Inactive | 0 | < 4 | Inactive | 0 | < 4 | Inactive | 0 | < 4 | 0 | 0 | Inactive | Inactive | 0 | < 4 | Inactive | 0 | < 4 |  |  |  |
| N[C@@H](C(=O)N[C@@H]1C(=O)N2C(C(=O)O)=C(Cl)CC[C@H]12)c1ccccc1 [LORACARBEF ANHYDROUS] | Inactive | 0.1 | < 4 | Inactive | 0.2 | < 4 | Inactive | 0.2 | < 4 | 0 | 0 | Inactive | Inactive | 0 | < 4 | Inactive | 0.2 | < 4 |  |  |  |
| CCOC(=O)N1CCC(=C2c3ccc(Cl)cc3CCc3cccnc32)CC1 [LORATADINE] | Inactive | 0.5 | >= 4 | Inactive | 0.9 | >= 4 | Inactive | 0.6 | >= 4 |  |  |  | Inactive | 0.2 | < 4 | Inactive | 0.7 | >= 4 | 0 | 0 | Composite Activity - Score (Hepatotoxicity [4]; Liver): Inactive |
| CCCCc1nc(Cl)c(CO)n1Cc1ccc(-c2ccccc2-c2nn[nH]n2)cc1 [LOSARTAN] | Inactive | 0.6 | < 4 | Inactive | 0.8 | >= 4 | Inactive | 1 | >= 4 | 0 | 0 | Inactive | Inactive | 0.4 | < 4 | Inactive | 0.4 | < 4 |  |  |  |
| CNCCCC12CCC(c3ccccc31)c1ccccc12 [MAPROTILINE] | Inactive | 0 | < 4 | Inactive | 0.3 | < 4 | Inactive | 0.3 | < 4 |  |  |  | Inactive | 0 | < 4 | Inactive | 0.5 | < 4 | 0 | 0 | Composite Activity - Score (Hepatotoxicity [4]; Liver): Inactive |
| C=C1c2c(Cl)ccc(O)c2C(=O)C2=C(O)[C@]3(O)C(=O)C(C(N)=O)=C(O)[C@@H](N(C)C)[C@@H]3[C@@H](O)[C@H]12 [MECLOCYCLINE] | Inactive | 0 | < 4 | Inactive | 0 | < 4 | Inactive | 0 | < 4 | 0 | 0 | Inactive | Inactive | 0 | < 4 | Inactive | 0 | < 4 |  |  |  |
